For 20 compounds, IC50 results are on record in patent US20230357162A1, “COMPOUNDS, COMPOSITIONS AND METHODS” (Denali Therapeutics Inc., priority 2020, published 2023).

Counter-ions that a name gives are not always drawn.

This test has as its system IL-1β secretion, THP-1 cells. In words: IL-1β secretion assay in PMA-differentiated THP-1 cells stimulated with LPS and nigericin (ELISA readout). As to conditions: Homo sapiens, THP-1, inhibition of IL-1β secretion, 25 ng/mL LPS then nigericin. In kind it is cell-based. The essentials:
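THP-1 cells differentiated with 5 ng/mL PMA for 40 h, primed in serum-free medium with 25 ng/mL LPS for 2 h, then compound (0.5% DMSO) for 1 h before nigericin for 2 h at 37°C. Supernatant IL-1β quantified by ELISA; normalized to high (LPS + 5 µM nigericin) and low (LPS only) controls.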
A general note: In an ELISA, binding on a coated surface is turned into a signal by an enzyme label.

`O=C(Cn1nc(C2CC2)c2cc(Br)ccc2c1=O)Nc1ncc(F)cn1` [Example 164, 2-(6-bromo-4-cyclopropyl-1-oxophthalazin-2-yl)-N-(5-fluoropyrimidin-2-yl)acetamide]: the IC50 (commonly the midpoint of a concentration-inhibition curve) is less than 10 µM (class column of Table 3) and 0.149 µM (numeric column of Table 3).
Turning to `O=C(Cn1nc([C@H]2C[C@@H]2F)c2cc(Br)ccc2c1=O)Nc1ncc(F)cn1` [Example 167, 2-[6-bromo-4-[2-trans-fluorocyclopropyl]-1-oxophthalazin-2-yl]-N-(5-fluoropyrimidin-2-yl)acetamide], the IC50 runs as follows: (class column of Table 3) greater than 15 µM; (numeric column of Table 3) 16.1 µM.
On to `O=C(Cn1nc(OC(F)C2CC2)c2cc(Br)ccc2c1=O)Nc1ncc(F)cn1` (stereo not shown) [Example 168, 2-[6-bromo-4-[cyclopropyl(fluoro)methoxy]-1-oxophthalazin-2-yl]-N-(5-fluoropyrimidin-2-yl)acetamide], for which the IC50 was greater than 15 µM (class column of Table 3) and 17.1 µM (numeric column of Table 3).
The matching figures for `CC(Oc1nn(CC(=O)Nc2ncc(F)cn2)c(=O)c2ccc(Br)cc12)C1CC1` (stereo not shown) [Example 169]: less than 10 µM and 2.29 µM.
For `O=C(Cn1nc(OC2CN(CC(F)(F)F)C2)c2cc(Br)ccc2c1=O)Nc1ncc(F)cn1` [Example 170, 2-[6-bromo-1-oxo-4-[1-(2,2,2-trifluoroethyl)azetidin-3-yl]oxyphthalazin-2-yl]-N-(5-fluoropyrimidin-2-yl)acetamide] the same measures were less than 10 µM and 0.493 µM.
For `N#C[C@H]1C[C@@H](Oc2nn(CC(=O)Nc3ncc(F)cn3)c(=O)c3ccc(Br)cc23)C1` [Example 171, 2-[6-bromo-4-(3-cis-cyanocyclobutyl)oxy-1-oxophthalazin-2-yl]-N-(5-fluoropyrimidin-2-yl)acetamide] the same measures were less than 10 µM and 5.85 µM.
Consider `CO[C@H]1C[C@@H](Oc2nn(CC(=O)Nc3ncc(F)cn3)c(=O)c3ccc(Br)cc23)C1` [Example 172, 2-[6-bromo-4-(3-cis-methoxycyclobutyl)oxy-1-oxophthalazin-2-yl]-N-(5-fluoropyrimidin-2-yl)acetamide], for which the IC50 was less than 10 µM (class column of Table 3) and 0.403 µM (numeric column of Table 3).
The matching figures for `O=C(Cn1nc(OC2CC2)c2cc(C3CC3)ccc2c1=O)Nc1ncc(F)cn1` [Example 173, 2-(6-cyclopropyl-4-cyclopropyloxy-1-oxophthalazin-2-yl)-N-(5-fluoropyrimidin-2-yl)acetamide]: less than 10 µM and 0.12 µM.
The matching figures for `O=C(Cn1nc(OC2CC2)c2cc(C(F)(F)F)ccc2c1=O)Nc1ncc(F)cn1` [Example 174, 2-(4-cyclopropoxy-1-oxo-6-(trifluoromethyl)phthalazin-2(1H)-yl)-N-(5-fluoropyrimidin-2-yl)acetamide]: less than 10 µM and 0.515 µM.
The matching figures for `CC(C)(C)OC(=O)N1CCC[C@@H](NC(=O)Cn2nc(OC3CC3)c3cc(Br)ccc3c2=O)C1` [Example 175, tert-butyl (3R)-3-[[2-(6-bromo-4-cyclopropyloxy-1-oxophthalazin-2-yl)acetyl]amino]piperidine-1-carboxylate]: less than 10 µM and 8.65 µM.
On to `O=C(Cn1nc(OC2CC2)c2cc(Br)ccc2c1=O)N[C@@H]1CCCNC1` [Example 176, 2-(6-bromo-4-cyclopropyloxy-1-oxophthalazin-2-yl)-N-[(3R)-piperidin-3-yl]acetamide HCl salt], for which the IC50 by setting is: (class column of Table 3) less than 10 µM; (numeric column of Table 3) 4.27 µM.
The matching figures for `O=C(Cn1nc(OC2CC2)c2cc(Br)ccc2c1=O)N[C@@H]1CCCN(C2CCC2)C1` [Example 177]: less than 10 µM and 0.213 µM.
As for `O=C(Cn1nc(OC2CC2)c2cc(Br)ccc2c1=O)N[C@@H]1CCCN(C2CC2)C1` [Example 178], the IC50 runs as follows: (class column of Table 3) less than 10 µM; (numeric column of Table 3) 0.14 µM.
For `O=C(Cn1nc(C(F)F)c2cc(Br)ccc2c1=S)Nc1ncc(F)cn1` [Example 179, 2-[6-bromo-4-(difluoromethyl)-1-thioxophthalazin-2-yl]-N-(5-fluoropyrimidin-2-yl)acetamide] the same measures were less than 10 µM and 0.486 µM.
For `CN(C)c1ccc2c(=O)n(CC(=O)Nc3ncc(F)cn3)nc(Br)c2c1` [Example 180, 2-[4-bromo-6-(dimethylamino)-1-oxophthalazin-2-yl]-N-(5-fluoropyrimidin-2-yl)acetamide] the same measures were less than 10 µM and 4.86 µM.
Consider `O=C(Cn1nc(Br)c2cc(Br)ccc2c1=O)Nc1ncc(F)cn1` [Example 181, 2-(4,6-Dibromo-1-Oxophthalazin-2-yl)-N-(5-Fluoropyrimidin-2-yl)Acetamide], for which the IC50 is less than 10 µM (class column of Table 3) and 0.23 µM (numeric column of Table 3).
The matching figures for `O=C(Cn1nc(C(F)F)c2c(F)c(Br)ccc2c1=O)Nc1ncc(Cl)cn1` [Example 182]: less than 10 µM and 0.068 µM.
The matching figures for `CCN1CCCC(NC(=O)Cn2nc(C(F)F)c3c(F)c(Br)ccc3c2=O)C1` (stereo not shown) [Example 183, 2-[6-bromo-4-(difluoromethyl)-5-fluoro-1-oxophthalazin-2-yl]-N-(1-ethylpiperidin-3-yl)acetamide]: less than 10 µM and 0.485 µM.
For `O=C(Cn1nc(C(F)F)c2c(F)c(C3CC3)ccc2c1=O)Nc1ncc(F)cn1` [Example 184, 2-[6-cyclopropyl-4-(difluoromethyl)-5-fluoro-1-oxophthalazin-2-yl]-N-(5-fluoropyrimidin-2-yl)acetamide] the same measures were less than 10 µM and 0.179 µM.
In turn, `O=C(Cn1nc(C(F)F)c2c(F)c(C3CCC3)ccc2c1=O)Nc1ncc(F)cn1` [Example 185, 2-[6-cyclobutyl-4-(difluoromethyl)-5-fluoro-1-oxophthalazin-2-yl]-N-(5-fluoropyrimidin-2-yl)acetamide] showed an IC50 (class column of Table 3) of less than 10 µM and an IC50 (numeric column of Table 3) of 2.09 µM.
